# According to patent US5583222A, “Azepanes and their ring homologues having protein kinase inhibiting activity” (Hoffmann-La Roche Inc., priority 1994, dated 1996):
# pIC50: −log10 of the molar value. Structures can show the parent of a compound that is named as a salt.
# How the values were obtained:
# T-lymphocyte = assay: Inhibition of T-lymphocyte proliferation; assay type: cell-based; settings: human mononuclear cells, PHA 1 μg/ml, [3H]thymidine, 3rd and 4th day, read-out: Test Procedure D: IC50, inhibition of T-lymphocyte proliferation
# Procedure: D: Inhibition of T-lymphocyte proliferation: Human mononuclear cells are isolated from venous blood of a healthy donor and a suspension of 5×10^5 cells/ml in RPMI 1640 medium, which contains 10% FCS, is prepared. The cells are stimulated with 1 μg/ml of T-cell-specific mitogen phytohaemagglutinin (PHA). 200 μl aliquots of cell suspension are treated in microtitre plates with the test substances in serial dilutions in the concentration range 0.03-10 μM. The cell proliferation is measured on the 3rd and 4th day by incubation with 1 μCi of [^3 H]thymidine during the last 6 hours of the respective day. The radioactivity taken up is measured with a liquid scintillation counter.
# protein kinase C (PKC) [1] = assay: Inhibition of protein kinase C (PKC) (in cells), MARCKS phosphorylation in 3T3 fibroblasts; assay type: cell-based; settings: Fibroblast, TPA 100 nM, phosphorylation of 80 kD MARCKS protein, 37° C., read-out: Test Procedure C: IC50, inhibition of PKC in cells
# Procedure: C: Inhibition of protein kinase C (PKC) (in cells): The intracellular protein kinase C (PKC) activity is determined in 3T3 fibroblasts by measuring the phosphorylation of a PKC-specific substrate, namely 80 kD MARCKS protein (myristoylated alanine-rich C-kinase substrate). The endogenous ATP is firstly labelled by incubating the cells at 37° C. with 80-200 μCi/ml of inorganic ^32 P-labelled phosphate. Then, the activation of the PKC is effected by phorbol ester (tetradecanoyl-phorbol 13-acetate (TPA); 100 nM). The test substances are used 15 minutes prior to TPA in dimethyl sulphoxide (DMSO)/buffer in the concentration range 0.1-100 μM. After incubation at 37° C. for 15 minutes the reaction is stopped by removing the medium and the cells are lysed by the addition of 1% Triton X-100 in phosphate buffer. The cell extract is subjected to a heat treatment (20 minutes at 90° C.) and subsequently centrifuged, whereby the MARCKS protein remains dissolved in the supernatant. This is then separated by discontinuous, one-dimensional SDS gel electrophoresis and the radioactivity in the 80 kD protein band is measured by a phosphoimager.
# HaCaT-cells = assay: Inhibition of keratinocyte proliferation a) HaCaT-cells; assay type: cell-based; settings: Homo sapiens, 48 hours, [3H]thymidine incorporation, read-out: Test Procedure E a: IC50, inhibition of keratinocyte proliferation
# Procedure: (§1) E Inhibition of keratinocyte proliferation: a) HaCaT-cells (immortalised human cells line): HaCaT-cell culture is effected in medium DMEM/F12 (mixture ratio 3/1) which contains serum (FCS, 5%), epidermal growth factor (EGF), hydrocortisone, cholera toxin, insulin, L-glutamine and penicillin/streptomycin. 5000 cells in 0.2 ml of medium are used per well in microtitre plates. The test substances are diluted in dimethyl sulphoxide/(DMSO)/medium and used in the concentration range 0.01-10 μM at the start of the culture. The cells are then incubated at 37° C. for 48 hours; radioactive [^3 H]thymidine is added during the last 6 hours. After disrupting the cells with trypsin incorporated activity is measured in a scintillation counter. The inhibitory activity of the test substance is given as the micromolar concentration which is required to reduce the thymidine incorporation by 50% (IC50 [μM]).
# protein kinase C (PKC) [2] = assay: Inhibition of protein kinase C (PKC) (isolated enzyme); assay type: biochemical; settings: partially purified PKC from swine brain; histone H1 substrate; 10 μM ATP; pH 7.4; 32° C., 2 minutes; read-out: Test Procedure A: IC50, inhibition of PKC (isolated enzyme)
# Procedure: A: Inhibition of protein kinase C (PKC) (isolated enzyme): Protein kinase C (PKC) activity is determined by measuring the transfer of ^32 P-labelled phosphate from ^32 P-γ-ATP (10 μM)to histone H1 (200 μg/ml) as the substrate. Partially purified PKC from swine brain is used as the enzyme source [DEAE chromatography according to the method of U. Kikkawa et al. (Methods Enzymol. 99, 288, 1983)]. Activation of the PKC is effected by phospholipid vesicle prepared by ultrasound treatment of a mixture of 0.05 ml of phosphatidylserine (10 mg/ml) and 0.005 ml of diolein (10 mg/ml) in 5 ml of Tris-HCl buffer (20 mM, pH 7.4). The test substances are used in dimethyl sulphoxide (DMSO)/buffer in the concentration range 0.001-100 μM. The test is started by the addition of enzyme; after incubation at 32° C. for 2 minutes the reaction is stopped by the addition of 20% trichloroacetic acid (with 1% SDS and 1% sodium pyrophosphate). The precipitated radioactive histone protein is separated from excess ATP by filtration over nitrocellulose membranes and the radioactivity on the filter is measured in a scintillation counter. The inhibitory activity of the test substance is given as the micromolar concentration which is required to reduce the PKC activity by 50% (IC50 [μM]).
# [3] = biological target: cAMP-dependent protein kinase (PKA); assay: Inhibition of cAMP-dependent protein kinase (PKA); assay type: biochemical; settings: partially purified PKA from swine brain; histone H1 substrate; 10 μM ATP; 2 μM cyclic AMP; pH 7.4; 32° C., 2 minutes; read-out: Test Procedure B: IC50, inhibition of PKA
# Procedure: B: Inhibition of CAMP-dependent protein kinase (PKA): PKA activity is determined by measuring the transfer of ^32 P-labelled phosphate from ^32 P-γ-ATP (10 μM) tO histone H1 (333 μg/ml) as the substrate. Partially purified PKA from swine brain is used as the enzyme source [DEAE chromatography according to the method of U. Kikkawa et al. (Methods Enzymol. 99, 288, 1983)]. Activation of the PKA is effected by cyclic AMP (2 μM) in Tris-HCl buffer (20 mM, pH 7.4). The test substances are used in dimethyl sulphoxide (DMSO)/buffer in the concentration range 0.001-100 μM. The test is started by the addition of enzyme; after incubation at 32° C. for 2 minutes the reaction is stopped by the addition of 20% trichloroacetic acid (with 1% SDS and 1% sodium pyrophosphate). The precipitated radioactive histone protein is separated from excess ATP by filtration over nitrocellulose membranes and the radioactivity on the filter is measured in a scintillation counter. The inhibitory activity of the test substance is given as the micromolar concentration which is required to reduce the PKA activity by 50% (IC50 [μM]).
# Primary keratinocytes = assay: Inhibition of keratinocyte proliferation b) Primary keratinocytes; assay type: cell-based; settings: primary keratinocytes from human foreskin, 48 hours, [3H]thymidine incorporation, read-out: Test Procedure E b: IC50, inhibition of keratinocyte proliferation
# Procedure: as §1, with “proliferation:” for “proliferation: a) HaCaT-cells (immortalised human cells line):”, “[μM]). b) Primary keratinocytes: Keratinocytes, isolated from human foreskin, are used in the primary culture up to passage 7. The culture and test conditions are identical with those of the HaCaT-cells with the exception of the use of 10000 cells per well.” for “[μM]).”
SMILES,pIC50 (T-lymphocyte),pIC50 (protein kinase C (PKC) [1]),pIC50 (HaCaT-cells),pIC50 (protein kinase C (PKC) [2]),pIC50 [3],pIC50 (Primary keratinocytes)
"COc1ccc(O)c(C(=O)c2ccc(C(=O)O[C@@H]3CCCNC[C@H]3NC(=O)c3cc(C)c(O)c(C)c3)cc2)c1F [Example 20, 4-(2-Fluoro-6-hydroxy-3-methoxy-benzoyl)-benzoic acid (3R,4R)-3-(4-hydroxy-3,5-dimethyl-benzoylamino)-azepan-4-yl ester hydrochloride (1:1)]",5.22 to 7.00,6.47,5.00 to 5.52,–,–,–
"Cc1cc(C(=O)N[C@@H]2CNCCC[C@H]2OC(=O)c2ccc(C(=O)c3c(O)ccc(F)c3F)cc2)cc(C)c1O [Example 25, 4-(2,3-Difluoro-6-hydroxy-benzoyl)-benzoic acid (3R,4R)3-(4-hydroxy-3,5-dimethyl-benzoylamino)-azepan-4-yl ester hydrochloride (1:1)]",6.00,6.10,–,7.40,7.85,–
Cc1cc(C(=O)N[C@@H]2CNCCC[C@H]2OC(=O)c2ccc(C(=O)c3c(O)ccc4c3OCCO4)cc2)cc(C)c1O [Example 41],6.52,< 6.00,–,7.40,7.89,–
"COc1cc(O)c(C(=O)c2ccc(C(=O)O[C@@H]3CCCNC[C@H]3NC(=O)c3ccc(O)cc3)cc2)c(F)c1 [Example 57, 4-(2-Fluoro-6-hydroxy-4-methoxy-benzoyl)-benzoic acid (3R,4R)-3-(4-hydroxy-benzoylamino)-azepan-4-yl ester hydrochloride (1:1)]",–,5.70,6.22 to 6.52,6.06,8.30,6.22
"O=C(N[C@@H]1CNCCC[C@H]1OC(=O)c1ccc(C(=O)c2cc3ccccc3cc2O)cc1)c1ccc(O)cc1 [Example 60, 4-(3-Hydroxy-naphthalen-2-ylcarbonyl)-benzoic acid (3R,4R)-3-(4-hydroxy-benzoylamino)-azepan-4-yl ester hydrochloride (1:1)]",5.30 to 5.70,5.57,6.30 to 6.52,5.92,8.05,5.22 to 6.52
